Data set [1] has as its system human sphingosine kinase. As to the kind of experiment: Screening assay for inhibitors of SK. Type of data set: biochemical. To be noted: library screen. The source says:
An assay for screening for inhibitors of SK has been established (French et al., Cancer Res 63: 5962 (2003)). […] Representative active compounds from four chemotypes of SK inhibitors, designated herein as Compounds I-IV, are shown in FIG. 1.

The test system of data set [2] is endogenous SK in rat IEC6 cells. As to the kind of experiment: Cell-based [3H]sphingosine to [3H]S1P assay of endogenous SK activity, rat IEC6 cells. The conditions noted are these: FIG. 2A. The method, then:
(§1) FIG. 2. […] Values represent the mean±sd SK activity in triplicate samples in a typical experiment. A cell-based assay in which the phosphorylation of exogenously added [^3H]sphingosine to [^3H]S1P by endogenous SK can be quantified (French et al., Cancer Res 63: 5962 (2003)) was used to evaluate the effects of test compounds on the activity of SK in intact cells. In this assay, cells are incubated with [^3H]sphingosine for an appropriate period of time, and then [^3H]sphingosine and [^3H]S1P (formed by endogenous SK activity) are separated by extraction and levels of both species are determined by scintillation counting. […] For example, human umbilical vein endothelial cells (HUVECs) are commonly used as a model of human vasculature. Additionally, rat IEC6 cells are commonly used as a model of intestinal epithelial cells.

Data set [3] relates to endogenous SK in human umbilical vein endothelial cells (HUVECs). As to the kind of experiment: Cell-based [3H]sphingosine to [3H]S1P assay of endogenous SK activity, HUVECs. The conditions noted are these: for cellular levels of [3H]S1P: 24 hours treatment, FIG. 3. On the procedure:
as §1, with “typical experiment. FIG. 3. […] HUVECs were treated with the indicated concentrations of Compound I, II or V for 24 hours. SK activity was measured by adding [^3H]sphingosine and determining its conversion to [3H]S1P. Values represent the mean±SD of duplicate samples. A cell-based” for “typical experiment. A cell-based”, “epithelial cells. […] Specifically, HUVECs, human chondrocytes (HC), and human synovial cells from a patient with RA (HFLS-RA) were examined.” for “epithelial cells.”

Data set [4] relates to NFκB. As to the kind of experiment: TNFα-induced NFκB luciferase reporter assay in fibroblasts. Type of data set: cell-based. To be noted: TNFα for 6 hours, FIG. 4. On the procedure:
FIG. 4. Inhibition of TNFα-induced activation of NFκB by ABC294640. Fibroblasts transfected with a TNFα-responsive promoter linked to luciferase were treated with the indicated concentrations of ABC294640 and then treated with TNFα for 6 hours. The amount of luciferase expressed by the cells was then measured by luminescence. Values represent the mean±sd luciferase activity in triplicate samples in a typical experiment.

Data set [5] relates to ICAM-1 and VCAM-1 in human endothelial cells. As to the kind of experiment: TNFα-induced adhesion molecule expression (Western analysis). It counts as cell-based. To be noted: TNFα 100 ng/mL, 6 hours. On the procedure: Like endothelial cells in the body, HUVECs will proliferate in response to several growth factors, and will respond to inflammatory cytokines such as TNFα and IL-1β. Western analyses were conducted with human endothelial cells to evaluate the effects of the SK inhibitors on signaling proteins known to be regulated by TNFα. […] Cell lysates from treated cells were assayed for the adhesion molecules ICAM-1 and VCAM-1. TNFα caused marked increases in the expression levels of adhesion proteins involved in leukocyte recruitment, including ICAM-1 and VCAM-1.

Data set [6] deals with Cox-2 activity (PGE2 production) in IEC6 rat intestinal epithelial cells. As to the kind of experiment: TNFα-induced Cox-2 activity (PGE2 ELISA), IEC6 cells. Type of data set: cell-based. To be noted: 10 μg/mL compound, 100 ng TNFα/mL, 18 hours. (In general: An ELISA detects its analyte on a solid surface through an enzyme-linked reagent.)
The test system of data set [7] is Cox-2 activity (PGE2 production) in human endothelial cells. The data set can be described thus: TNFα-induced Cox-2 activity (PGE2 ELISA), human endothelial cells. It counts as cell-based. The conditions noted are these: 10 μg/mL compound, 100 ng TNFα/mL, 18 hours.
Data set [8] has as its system male C57BL/6 mice, DSS-colitis. As to the kind of experiment: Acute DSS-colitis model of IBD. Type of data set: in vivo. To be noted: 2% DSS, 50 mg/kg oral daily; for Disease Activity Index (DAI): Days 4-6.
Data set [9] concerns mice, chronic DSS-colitis. The data set can be described thus: Chronic (35-day) DSS-colitis model of IBD. The conditions noted are these: for colon length: Day 35, 50 mg/kg oral daily for 7 days, DSS alone 4.9±0.2, water 7.8±0.3; for serum level of IL-6: at time of sacrifice; for increase in DAI: third DSS exposure, 50 mg/kg oral daily Day 28-35, P<0.001 on Day 35; for colonic levels of pro-inflammatory cytokines TNFα, IL-1β, IFN-γ and IL-6: treated during the final DSS cycle, 50 mg/kg oral. Type of data set: in vivo.

The test system of data set [10] is female DBA/1 mice, Collagen-Induced Arthritis. The data set can be described thus: Collagen-Induced Arthritis (CIA) model. It counts as in vivo. To be noted: Day 12; ABC294640 100 mg/kg, ABC747080 50 mg/kg oral.
In data set [11] the test system is male Lewis rats, adjuvant-induced arthritis. The data set can be described thus: Adjuvant-induced arthritis model. It counts as in vivo. To be noted: 5, 35, 100 mg/kg oral daily, 10 days. The method, then:
FIG. 18. Effects of ABC294640 on disease progression in the adjuvant-induced arthritis model in rats. Male Lewis rats were injected subcutaneously with Mycobacterium butyricum, and symptoms of immune reactivity were present after 2 weeks. Responsive rats were randomized into treatment groups (n=8 per group), and received oral daily doses of: solvent alone (0.375% Tween-80); 100 mg/kg ABC294640; 35 mg/kg ABC294640; or 5 mg/kg ABC294640, or intraperitoneal injections of indomethacin (5 mg/kg) every other day. The severity of disease in each animal was quantified by measurement of the hind paw thickness. Panel A. Time course of hind paw arthritic response. Panel B. Final day (Day 10) hind paw thickness measurements. Panel C. Change in paw thickness of respective group versus non-arthritic rats (naive) at Day 10. *, p<0.05; ***, p<0.001 versus solvent alone group.
Adjuvant-induced arthritis is another widely used assay that recapitulates many features of human rheumatoid arthritis, and so is useful in the evaluation of new drug candidates. Age- and weight-matched male Lewis rats (150-170 g) were injected subcutaneously in the tail with 1 mg of Mycobacterium butyricum (Difco, killed dried) suspended in 0.1 ml of light mineral oil. Symptoms of immune reactivity were present after 2 weeks. […] The severity of disease in each animal was quantified by measurement of the hind paw thickness. […]

The subject of data set [12] is female Swiss-Webster mice. To be noted: mouse, in vivo.
Method: The compounds are soluble to at least 15 mg/ml in 50% dimethylsulfoxide: 50% phosphate-buffered saline (DMSO:PBS) for intraperitoneal (IP) administration or Polyethylene glycol-400 (PEG400) for oral dosing.
A short description of data set [13]: physchem. The conditions noted are these: aqueous with cosolvent or surfactant or cyclodextrin.
In data set [14] the test system is endogenous SK in human chondrocytes (HC). The data set can be described thus: Cell-based S1P formation assay, human chondrocytes. The conditions noted are these: HCs; read-out: drug concentration that decreases S1P formation by 50%. On the procedure: (§2) A cell-based assay in which the phosphorylation of exogenously added [^3H]sphingosine to [^3H]S1P by endogenous SK can be quantified (French et al., Cancer Res 63: 5962 (2003)) was used to evaluate the effects of test compounds on the activity of SK in intact cells. In this assay, cells are incubated with [^3H]sphingosine for an appropriate period of time, and then [^3H]sphingosine and [^3H]S1P (formed by endogenous SK activity) are separated by extraction and levels of both species are determined by scintillation counting. We have used a number of cell lines in this assay to confirm that the SK inhibitors are active in multiple intact cell systems. For example, human umbilical vein endothelial cells (HUVECs) are commonly used as a model of human vasculature. Additionally, rat IEC6 cells are commonly used as a model of intestinal epithelial cells.
(§3) Specifically, HUVECs, human chondrocytes (HC), and human synovial cells from a patient with RA (HFLS-RA) were examined.

Data set [15] concerns endogenous SK in human synovial cells from a patient with RA (HFLS-RA). As to the kind of experiment: Cell-based S1P formation assay, HFLS-RA cells. To be noted: read-out: drug concentration that decreases S1P formation by 50%. The method, then: as §2, §3
Data set [16] relates to HL-60 (human promyelocytic leukemia) cells. The data set can be described thus: TNFα-induced HL-60 cell proliferation. It counts as cell-based. The conditions noted are these: 25 ng TNFα/ml, 72 hours. The method, then:
FIG. 6. Inhibition of TNFα-induced HL-60 cell proliferation by SK inhibitors. HL-60 cells were serum-starved for 18 hours and then left untreated (▴) or treated with 25 ng of TNFα/ml (▾) in the presence of the indicated concentrations of Compound I, II or V. After 72 hours, the number of cells in each treatment group was quantified.
As discussed above, aberrant activation of leukocytes is a central feature of many inflammatory diseases. Because of the roles of S1P in promoting leukocyte proliferation, we examined the effects of several SK inhibitors on the proliferation of HL-60 (human promyelocytic leukemia) cells. […] Compound I was particularly effective, completely blocking the effects of TNFα at concentrations of 0.2 μM or greater.

The term solubility denotes the dissolved amount per volume that the medium holds. Low readings indicate a poorly soluble substance, high ones a readily soluble substance.

For the compound `O=C(NCc1ccncc1)C12CC3CC(C1)CC(c1ccc(Cl)cc1)(C3)C2` [ABC294640], the “inhibition of SK” value in data set [1] is recorded as “inhibit SK”. Moreover, the “SK activity ([3H]S1P formation)” value in data set [2] is “dose-dependent suppression of SK activity”. For the same compound, in data set [3] (human endothelial cells, FIG. 2B), the “SK activity ([3H]S1P formation)” value is given as “dose-dependent suppression of SK activity”. Moreover, the “activation of NFκB by TNFα (luciferase)” value in [4] is recorded as “dose-dependently suppressed”. The “TNFα induction of ICAM-1 and VCAM-1” value in data set [5] (25 μM compound) is “completely abrogated”. Moreover, the “TNFα-induced expression of ICAM-1 and VCAM-1” value in data set [5] is “inhibited”. Also, in [6], the “induction of Cox-2 activity by TNFα (PGE2 production)” value is on record as “strongly suppressed”. Further, the “induction of Cox-2 activity by TNFα (PGE2 production)” value in [7] was “strongly suppressed”. Moreover, in [8] (Day 6), the colon length entry is on record as “colons of intermediate length”; the “colonic S1P levels (LC-MS/MS)” value is listed as “markedly lower levels of colonic S1P”; the “histological examination of colon sections” value is “no or mild crypt damage, no or low levels of inflammatory cell infiltration and no edema in the submucosa”; the “increase in colonic myeloperoxidase (MPO) activity” value is recorded as “markedly attenuated”. Also, the “Disease Activity Index (DAI)” value in data set [8] is “reduced the intensity of the IBD manifestations”. The “SK expression in the colon (immunohistochemistry)” value in data set [9] (DSS treated mice) is given as “clearly reduced”. For the same compound, in data set [9], the colon length came out at 6.2±0.2 cm; the “serum level of IL-6” value is “reduced the serum level of IL-6”; the “increase in DAI” value was “significantly suppressed the increase in DAI”; the “colonic levels of pro-inflammatory cytokines TNFα, IL-1β, IFN-γ and IL-6” value is on record as “reduced levels of the pro-inflammatory cytokines”. In addition, the “colonic S1P levels” value in data set [9] (oral 50 mg/kg daily, 7 days prior to sacrifice) was “significant reductions of S1P levels”. In addition, the “histologic damage of tibiotarsal joints” value in data set [10] was “significantly reduced histologic damage”. The “arthritic response (paw thickness)” value in [11] is reported as “inhibited this arthritic response in a dose-dependent manner”. Further, the “dose with no immediate or delayed toxicity” value in data set [12] (ip) was “at least 50 mg/kg”. Moreover, the “dose without noticeable toxicity” value in data set [12] (po) is listed as “at least 100 mg/kg”. This compound also showed a solubility in data set [13] not below 15 mg/mL.
As for `Oc1ccc(Nc2nc(-c3ccc(Cl)cc3)cs2)cc1` [Compound II], in data set [3] (HUVECs), the “cellular levels of [3H]S1P” value is “dose-dependent reductions in the cellular levels of S1P”. Besides, the IC50 in [3] (HUVECs, read-out: drug concentration that decreases S1P formation by 50%) came to 200 nM; in [14], 360 nM; in data set [15], 190 nM. Moreover, the “HL-60 cell proliferation of TNFα-stimulated cells” value in data set [16] is given as “dose-dependent reductions in HL-60 cell proliferation”.
As to `O=C(O)c1cc(/N=N/c2ccc(O)c(C(=O)O)c2)ccc1O` [Dipentum, reference compound], in [8] (Day 6), the “colon Histology Score” value is reported as “consistently lower than the DSS-alone animals”; the colon length entry is listed as “colons of intermediate length”; the “elevations of colonic pro-inflammatory proteins IFN-γ, IL-1β, IL-6 and TNFα” value is on record as “attenuated”; the “increase in colonic myeloperoxidase (MPO) activity” value is “markedly attenuated”. Also, the “Disease Activity Index (DAI)” value in data set [8] was “reduced the intensity of the IBD manifestations”. Also, in data set [9], the colon length came out at 6.1±0.2 cm; the “serum level of IL-6” value is “reduced the serum level of IL-6”; the “increase in DAI” value is recorded as “significantly suppressed the increase in DAI”; the “colonic levels of pro-inflammatory cytokines TNFα, IL-1β, IFN-γ and IL-6” value was “cytokine profiles equivalent to the DSS-alone group”.
Consider `O=C1C(=Cc2ccc(O)c(O)c2)Oc2ccccc21` [V], for which the “cellular levels of [3H]S1P” value in [3] (HUVECs) is “dose-dependent reductions in the cellular levels of S1P”. In addition, in data set [16], the “HL-60 cell proliferation of TNFα-stimulated cells” value was “dose-dependent reductions in HL-60 cell proliferation”.
